The values below are quoted from earlier work in US12239131B2, “Plant growth regulator concentrate and use thereof” (FINE AGROCHEMICALS LIMITED, priority 2018, dated 2025).

In general, pKa refers to the negative logarithm of the acid dissociation constant.

As to `O=S(=O)(O)CCO` [HESA, 2-hydroxyethyl sulphonic acid], the pKa is recorded as −1.4. On to `CC1(C)C2CCC1(CS(=O)(=O)O)C(=O)C2` (stereo not drawn) [Camphor sulfonic acid], for which the pKa was 1.2. With `CC(O)(P(=O)(O)O)P(=O)(O)O` [HEDP, (1-hydroxyethane-1,1-diyl)bis(phosphonic acid)], the pKa is 1.35.
